Literature values as cited in patent US20050101642A1, “Chemical complex comprising a pyridine carboxy derivative and an H2 histamine receptor antagonist” (Astion Development ApS, priority 2000, published 2005).

Target: poly(ADP-ribose)polymerase (Homo sapiens, UniProt P09874)
Sequence (P09874 whole entry): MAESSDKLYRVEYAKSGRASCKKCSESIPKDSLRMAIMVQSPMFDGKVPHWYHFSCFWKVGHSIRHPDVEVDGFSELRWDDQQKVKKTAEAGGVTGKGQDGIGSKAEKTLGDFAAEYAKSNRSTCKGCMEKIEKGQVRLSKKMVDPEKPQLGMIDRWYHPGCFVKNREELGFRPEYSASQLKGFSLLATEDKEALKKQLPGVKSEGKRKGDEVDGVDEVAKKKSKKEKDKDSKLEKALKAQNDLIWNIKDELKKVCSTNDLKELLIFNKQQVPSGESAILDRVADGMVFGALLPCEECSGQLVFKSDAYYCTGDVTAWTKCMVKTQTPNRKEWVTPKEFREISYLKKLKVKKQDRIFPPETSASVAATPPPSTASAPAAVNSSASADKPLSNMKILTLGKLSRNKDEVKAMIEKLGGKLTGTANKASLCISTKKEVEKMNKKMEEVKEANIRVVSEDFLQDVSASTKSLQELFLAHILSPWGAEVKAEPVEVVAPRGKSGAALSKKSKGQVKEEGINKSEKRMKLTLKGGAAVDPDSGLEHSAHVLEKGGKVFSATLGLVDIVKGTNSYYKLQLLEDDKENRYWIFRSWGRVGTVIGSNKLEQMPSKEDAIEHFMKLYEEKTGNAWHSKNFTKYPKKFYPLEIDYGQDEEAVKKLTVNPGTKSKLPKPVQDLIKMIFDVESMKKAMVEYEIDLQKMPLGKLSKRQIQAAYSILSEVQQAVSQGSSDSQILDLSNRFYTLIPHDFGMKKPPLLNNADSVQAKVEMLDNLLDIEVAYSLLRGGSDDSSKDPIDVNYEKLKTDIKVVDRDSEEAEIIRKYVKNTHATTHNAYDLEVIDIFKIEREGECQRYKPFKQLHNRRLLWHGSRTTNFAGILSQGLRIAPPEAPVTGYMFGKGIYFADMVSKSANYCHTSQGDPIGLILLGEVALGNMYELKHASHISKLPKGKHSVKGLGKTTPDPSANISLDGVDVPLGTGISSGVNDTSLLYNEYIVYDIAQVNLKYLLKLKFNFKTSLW

inhibition of poly(ADP-ribose)polymerase: potent inhibitor
Structure (SMILES): NC(=O)c1cccnc1 [Niacinamide]
